One experiment concerns HOP-92. Kind of experiment: Growth inhibition of human HOP-92 cells assessed as cell growth at 10 uM incubated for 48 hrs by sulforhodamine B assay relative to control. The conditions noted are these: read-out: Activity. Format: functional.
In a further experiment the test system is SNB-19. Nature of the experiment: Growth inhibition of human SNB-19 cells assessed as cell growth at 0.01 uM incubated for 48 hrs by sulforhodamine B assay relative to control. Format: functional. As to conditions: read-out: Activity.

This is an account of results in ChEMBL document CHEMBL4715697, “Synthesis and biological activity of benzamide DNA minor groove binders” (2016).

Regarding `CC(=O)Nc1cc(CO)cc(NC(=O)c2ccccc2)c1`, the growth at 10 µM in the experiment with HOP-92 turned out to be 96.3%.

In the case of `CC(=O)Nc1cc(CCl)cc(NC(=O)c2ccc(C(=O)Nc3cccc(NC(=O)CCCN(C)C)c3)cc2)c1`, the growth at 0.01 µM in the experiment with SNB-19 stood at 106%.

For the molecule `CC(=O)Nc1cc(CO[Si](C)(C)C(C)(C)C)cc(NC(=O)c2ccc(C(=O)Nc3cccc(NC(=O)CCCN(C)C)c3)cc2)c1`, the growth at 0.01 µM in the experiment with SNB-19 was 96%.
